We go through eight molecules from patent publication CN111686108A, “表小檗碱在制备抗幽门螺旋杆菌感染药物中的应用” (Southwest University, priority 2020, dated 2020).

In brackets after ≈: the same amount, converted by molar mass. Read-outs that look alike come from different tables or passages of the source.

Data set [1] relates to Helicobacter pylori 11637 [幽门螺旋杆菌(11637)]. The data set is described as follows: MIC determination by two-fold (倍半) dilution on MH agar, single drugs and mixed drugs, H. pylori 11637. The format is cell-based. Particulars: for MIC: Helicobacter pylori.
The target in data set [2] is cytochrome P450 isoform CYP2D6 [细胞色素P450亚型CYP2D6] (Homo sapiens, UniProt P10635). The following applies: in words; background; cited from earlier work.
Sequence of cytochrome P450 isoform CYP2D6 [细胞色素P450亚型CYP2D6] (P10635 whole entry, canonical isoform): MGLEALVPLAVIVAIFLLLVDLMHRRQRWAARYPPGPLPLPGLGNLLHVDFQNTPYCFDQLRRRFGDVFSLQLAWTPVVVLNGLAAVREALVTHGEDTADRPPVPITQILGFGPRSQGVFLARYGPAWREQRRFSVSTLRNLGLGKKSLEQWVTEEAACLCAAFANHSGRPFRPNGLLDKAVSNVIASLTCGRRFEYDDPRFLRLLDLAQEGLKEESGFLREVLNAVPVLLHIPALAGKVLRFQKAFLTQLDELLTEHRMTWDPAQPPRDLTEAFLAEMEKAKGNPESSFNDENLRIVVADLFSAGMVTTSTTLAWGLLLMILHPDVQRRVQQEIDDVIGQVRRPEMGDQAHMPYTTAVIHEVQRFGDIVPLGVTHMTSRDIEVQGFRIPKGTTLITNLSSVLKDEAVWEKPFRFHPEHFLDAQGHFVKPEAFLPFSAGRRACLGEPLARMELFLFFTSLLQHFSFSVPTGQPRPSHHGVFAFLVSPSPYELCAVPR
Data set [3] deals with BACE1 (Homo sapiens, UniProt P56817). The following applies: in words; background; cited from earlier work.
Sequence of BACE1 (P56817 46-501, species assumed): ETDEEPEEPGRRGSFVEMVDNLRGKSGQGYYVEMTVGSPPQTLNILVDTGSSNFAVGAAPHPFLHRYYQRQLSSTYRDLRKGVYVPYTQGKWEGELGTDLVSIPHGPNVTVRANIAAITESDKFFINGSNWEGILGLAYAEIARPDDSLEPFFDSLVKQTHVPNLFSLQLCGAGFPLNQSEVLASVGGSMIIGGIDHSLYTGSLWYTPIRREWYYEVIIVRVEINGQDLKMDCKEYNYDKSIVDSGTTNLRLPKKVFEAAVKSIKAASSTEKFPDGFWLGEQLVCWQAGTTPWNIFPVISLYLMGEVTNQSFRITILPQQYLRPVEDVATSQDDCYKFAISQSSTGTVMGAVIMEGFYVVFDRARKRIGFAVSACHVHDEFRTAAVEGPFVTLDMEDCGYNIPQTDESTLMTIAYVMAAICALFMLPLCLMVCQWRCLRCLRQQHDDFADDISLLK
Data set [4] deals with aldose reductase [醛糖还原酶] (Homo sapiens, UniProt P15121). The following applies: in words; background; cited from earlier work.
The test system of data set [5] is α receptor [α受体]. Particulars: in words; background; cited from earlier work.
For data set [6] the following is noted: in words, background; cited from earlier work.
[7] abbreviates: drug alone, H. pylori 11637, MH agar, 85%N2, 10%CO2, 5%O2, 48~72h, read-out: MIC.

As a reminder, the MIC is the least concentration at which growth counts as inhibited.

In turn, `COc1ccc2cc3[n+](cc2c1OC)CCc1cc2c(cc1-3)OCO2.[Cl-]` [BBR, 小檗碱盐酸盐] came in with a minimal inhibitory concentration (MIC) in data set [1] (72 h) of 50 µg/mL. In addition, the synergistic effect result in data set [1] (in words, combined with omeprazole (奥美拉唑), from table 1) is given as “有一定的协同作用”.

For the molecule `COc1cc2c(cc1OC)-c1cc3ccc4c(c3c[n+]1CC2)OCO4` [e-BBR, 表小檗碱], the MIC in data set [1] (setting [7]) worked out at 100 µg/mL. In data set [1] (in words, compared with berberine (小檗碱), from table 1), the anti-Hp activity result is “低于小檗碱”. Moreover, the “inhibitory activity on CYP2D6” value in data set [2] is reported as “较强的抑制活性”. In addition, in data set [3], the BACE1 inhibitory activity result is reported as “非竞争性BACE1抑制活性”. Also, the “inhibition of aldose reductase activity” value in data set [4] is recorded as “抑制醛糖还原酶活性”. Besides, the “α receptor blocking effect” value in data set [5] is recorded as “α受体阻断作用”. Further, the “in vitro hypoglycaemic activity” value in data set [6] was “体外降血糖活性”.

As for `CC[C@H]1OC(=O)[C@H](C)[C@@H](O[C@H]2C[C@@](C)(OC)[C@@H](O)[C@H](C)O2)[C@H](C)[C@@H](O[C@@H]2O[C@H](C)C[C@H](N(C)C)[C@H]2O)[C@](C)(OC)C[C@@H](C)C(=O)[C@H](C)[C@@H](O)[C@]1(C)O` [克, 克拉霉素], in data set [1] (setting [7]), the MIC was 0.1 µg/mL (≈ 0.134 µM).

As for `O=C1OCCN1/N=C/c1ccc([N+](=O)[O-])o1` [呋, 呋喃唑酮], the MIC in data set [1] (setting [7]) was determined as 1.56 µg/mL (≈ 6.93 µM).

With `COc1ccc2[nH]c([S+]([O-])Cc3ncc(C)c(OC)c3C)nc2c1` (stereo not drawn) [奥, 奥美拉唑], the MIC in data set [1] (setting [7]) came to 100 µg/mL (≈ 289 µM).

Turning to `C[C@H]1COc2c(N3CCN(C)CC3)c(F)cc3c(=O)c(C(=O)O)cn1c23` [左, 左氧氟沙星], the MIC in data set [1] (setting [7]) amounted to 3.1 µg/mL (≈ 8.58 µM).

`Cc1ncc([N+](=O)[O-])n1CCO` [甲, 甲硝唑]: the MIC in data set [1] (setting [7]) is 1.56 µg/mL (≈ 9.11 µM).

On to `CC1(C)S[C@@H]2[C@H](NC(=O)[C@H](N)c3ccc(O)cc3)C(=O)N2[C@H]1C(=O)O` [阿, 阿莫西林], for which, in data set [1] (setting [7]), the MIC is 0.05 µg/mL (≈ 0.137 µM).
